The text below walks through data of paper PMC10233092, “Selective Janus kinase 1 inhibition resolves inflammation and restores hair growth offering a viable treatment option for alopecia areata” (Skin Health and Disease, 2023).

The test deals with C3H/HeJ mouse model of AA. Put plainly: Circulating cytokines in mouse plasma, Luminex. It counts as in vivo. The following applies: at 4 weeks. The method, then: A Luminex assay kit from Merck Millipore (Cat# MTH17MAG‐47K) was used and the analysis carried out according to the supplier protocols.
Setting [1] is: Local JAK1i group, Mean±95% CI, n=6.
The mark [2] stands for this setting: Systemic JAK1i group, Mean±95% CI, n=6.

Each structure is given as a SMILES string.

Turning to `COCC(C(=O)Nc1cccc2c(-c3nc(Nc4cccc(S(C)(=O)=O)c4F)ncc3F)c[nH]c12)N1CCN(C)CC1` (stereo not shown) [Cmpd C], under setting [1], the “IFN-γ in mouse plasma” value was 42 (±14) pg/mL, the “IL-1β in mouse plasma” value is given as 2.4 (±0.5) pg/mL, the “IL-2 in mouse plasma” value is recorded as 6.2 (±1.6) pg/mL and the “IL-10 in mouse plasma” value is reported as 2.9 (±1.4) pg/mL. Under setting [1], the “IL-13 in mouse plasma” value is 37 (±2.9) pg/mL, the “IL-17A in mouse plasma” value is recorded as 15 (±2.4) pg/mL, the “IL-22 in mouse plasma” value was 35 (±25) pg/mL and the “IL-23 in mouse plasma” value is listed as 148 (±95) pg/mL. Also, under setting [1], the “IL-33 in mouse plasma” value is 76 (±58) pg/mL and the “TNFα in mouse plasma” value is reported as 7.3 (±0.8) pg/mL. The “IL-6 in mouse plasma” value (Local JAK1i group, only one value within detection range) is on record as 2.8 (±NA) pg/mL. Under setting [2], the “IFN-γ in mouse plasma” value is recorded as 49 (±21) pg/mL, the “IL-2 in mouse plasma” value is on record as 4.5 (±1.5) pg/mL, the “IL-6 in mouse plasma” value is given as 2.9 (±2.3) pg/mL and the “IL-10 in mouse plasma” value was 2.4 (±0.7) pg/mL. Also, under setting [2], the “IL-13 in mouse plasma” value was 33 (±13) pg/mL, the “IL-17A in mouse plasma” value is on record as 15 (±4.2) pg/mL, the “IL-22 in mouse plasma” value was 42 (±31) pg/mL and the “IL-23 in mouse plasma” value is 206 (±333) pg/mL. Under setting [2], the “IL-33 in mouse plasma” value was 32 (±17) pg/mL and the “TNFα in mouse plasma” value is listed as 6.3 (±2.0) pg/mL. Further, the “IL-1β in mouse plasma” value (Systemic JAK1i group, only one value within detection range) is 2.0 (±NA) pg/mL.
